Patent publication US11504385B2, “Proteolysis targeting chimeric molecule, preparation method, and application” (CHINA PHARMACEUTICAL UNIVERSITY, priority 2019, dated 2022)

Legend:
Format in all cases: cell-based
K562 cell line = experiment: Cell viability test (CellTiter-Glo), K562
Description: The operation method of the K562 cell viability test is as follows:
50 μL of K562, MCF-7, HCT116 and A549 cell suspensions were added to a 96-well plate and incubated for 12 hours. 10 μL of compound was added to the well and incubated for 48 hours. Operation was performed according to a CellTiter-Glo® luminescent cell viability assay kit (Promega). Nonlinear regression analysis data in GraphPad Prism 6 was used.

HEK293T = experiment: Cell viability test, HEK293T; settings: non-BCR-ABL dependent cell line
ABL gene = experiment: RT-qPCR, expression of the ABL gene in K562 cells
Excerpt: In order to test the degradation effect of the compound 4C on c-ABL and BCR-ABL proteins in K562 cells, the researchers performed an immunoblotting experiment. […] In order to exclude the possibility that the compound 4C affected the ABL gene to generate false positive expression, the researchers used RT-qPCR in K562 cells to study the expression of the ABL gene.
The operation method of an RT-qPCR experiment is as follows:
According to the related gene information in the NCBI database, the coding sequences were selected, and primers were designed and synthesized by GenScript Biotechnology Corporation under entrustment. The sequences are as follows:
A K562 cell resuspension solution collected in a 1.5 mL centrifuge tube was centrifuged briefly. […] After mixing uniformly, the purity and concentration of the extracted RNA sample were detected using a spectrophotometer. […]
0.2 ml thin-walled PCR tubes were taken and numbered respectively. […] Water was added to each tube to 25 μl and mixed uniformly, and the mixed solutions were placed in an SLAN fluorescent quantitative PCR instrument. After pre-denaturation at 95° C. for 5 min, the mixed solutions were placed at 95° C. for 15 s→65° C. for 35 s (fluorescence detection), for 40 cycles.

K562 cells = experiment: Time-effect experiment, apoptosis of K562 cells; settings: 250 nM, after 48 hours

For `Cc1nc(Nc2ncc(C(=O)Nc3c(C)cccc3Cl)s2)cc(N2CCN(CCCCOc3ccc(/N=N/c4ccc(C(=O)Nc5cccc6c5CN(C5CCC(=O)NC5=O)C6=O)cc4)cc3)CC2)n1` (stereo not drawn) [Compound 4C, (E)-N-(2-chloro-6-methylphenyl)-2-((6-(4-(4-(4-((4-((2-(2,6-dioxopiperidin-3-yl)-1-oxoisoindolin-4-yl)carbamoyl)phenyl)diazenyl)phenoxy)butyl)piperazin-1-yl)-2-methylpyrimidin-4-yl)amino)thiazole-5-carboxamide], the EC50 (K562 cell line; Homo sapiens, K562 cells, 48 hours, CellTiter-Glo, read-out: median effective concentration (EC50)) was 28 nM, the “selectivity for the BCR-ABL dependent K562 cell line” value (K562 cell line; versus A549, HCT116, HEK293T, MCF-7) was “good selectivity” and the “effect on cell viability” value (HEK293T) was “hardly affects”. The “mRNA level of the ABL gene, time-effect” value (ABL gene; 500 nm, 48 hours) was “did not significantly decrease”, the “mRNA level of the ABL gene, dose-effect” value (ABL gene; different concentrations, 36 hours, compared with control group) was “did not change significantly” and the “apoptosis of K562 cells” value (K562 cells) was “obvious apoptosis”.
